The record followed here is ChEMBL document CHEMBL4138309, “Discovery of β-Adrenergic Receptors Blocker-Carbonic Anhydrase Inhibitor Hybrids for Multitargeted Antiglaucoma Therapy” (J Med Chem, 2018).

The target of experiment [1] is Beta-2 adrenergic receptor (Homo sapiens, UniProt P07550). Briefly: Displacement of [3H]-CGP12177 from human beta2 ADR expressed in HEK293T cell membrane after 90 mins by scintillation counting. On the technique in general: In a radioligand displacement assay an active substance lowers the binding of a labelled ligand.
Experiment [2] deals with Beta-1 adrenergic receptor (Homo sapiens, UniProt P08588). The experiment is described as follows: biochemical.
In a further experiment the target is Carbonic anhydrase 9 (Homo sapiens, UniProt Q16790).
Experiment [3] concerns Oryctolagus cuniculus. The experiment is described as follows: Anti-glaucoma activity in hypertonic saline-induced hypertensive New Zealand albino rabbit model assessed as decrease in intraocular pressure at 1% instilled into eye vitreous measured at 60 mins post administration by pneumatonometric analysis relative to DRZ + timolol (1% + 0.25%). In kind it is functional, organism-based.

For experiment [4], the system named is Oryctolagus cuniculus. Briefly: Anti-glaucoma activity in hypertonic saline-induced hypertensive New Zealand albino rabbit model assessed as decrease in intraocular pressure at 1% instilled into eye vitreous measured at 4 hrs post administration by pneumatonometric analysis. In kind it is functional.
Experiment [5] has as its system Oryctolagus cuniculus. Briefly: Anti-glaucoma activity in hypertonic saline-induced hypertensive New Zealand albino rabbit model assessed as decrease in intraocular pressure at 0.25% instilled into eye vitreous measured at 4 hrs post administration by pneumatonometric analysis. In kind it is functional, organism-based.
Experiment [6] concerns Oryctolagus cuniculus. Briefly: Anti-glaucoma activity in hypertonic saline-induced hypertensive New Zealand albino rabbit model assessed as decrease in intraocular pressure at 0.25% instilled into eye vitreous along with 1% DRZ measured at 4 hrs post administration by pneumatonometric analysis. In kind it is functional, organism-based.
The test system of experiment [7] is Oryctolagus cuniculus. Briefly: Anti-glaucoma activity in hypertonic saline-induced hypertensive New Zealand albino rabbit model assessed as decrease in intraocular pressure at 0.25% instilled into eye vitreous measured at 2 hrs post administration by pneumatonometric analysis. In kind it is functional.
The test system of experiment [8] is Oryctolagus cuniculus. Briefly: Anti-glaucoma activity in hypertonic saline-induced hypertensive New Zealand albino rabbit model assessed as decrease in intraocular pressure at 0.25% instilled into eye vitreous along with 1% DRZ measured at 2 hrs post administration by pneumatonometric analysis. In kind it is functional.
Experiment [9] concerns Oryctolagus cuniculus. The experiment is described as follows: Anti-glaucoma activity in hypertonic saline-induced hypertensive New Zealand albino rabbit model assessed as decrease in intraocular pressure at 0.25% instilled into eye vitreous measured at 60 mins post administration by pneumatonometric analysis. In kind it is functional.

SMILES strings stand for the structures. Activity calls are given as the source filed them. No cut-off for these calls is given here.

Beta-2 adrenergic receptor, sequence (P07550 whole entry): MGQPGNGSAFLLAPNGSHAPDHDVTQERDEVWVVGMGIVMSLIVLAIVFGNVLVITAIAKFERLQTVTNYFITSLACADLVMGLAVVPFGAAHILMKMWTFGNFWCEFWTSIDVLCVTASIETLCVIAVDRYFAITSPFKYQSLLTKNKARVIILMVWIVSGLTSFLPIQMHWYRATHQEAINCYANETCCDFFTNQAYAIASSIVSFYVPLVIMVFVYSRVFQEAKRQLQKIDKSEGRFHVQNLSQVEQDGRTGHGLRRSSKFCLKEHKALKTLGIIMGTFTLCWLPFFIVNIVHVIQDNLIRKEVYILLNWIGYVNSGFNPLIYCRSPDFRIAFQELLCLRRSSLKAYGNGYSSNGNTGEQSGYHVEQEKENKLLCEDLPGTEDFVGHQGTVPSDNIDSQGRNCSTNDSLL
Beta-1 adrenergic receptor, sequence (P08588 whole entry): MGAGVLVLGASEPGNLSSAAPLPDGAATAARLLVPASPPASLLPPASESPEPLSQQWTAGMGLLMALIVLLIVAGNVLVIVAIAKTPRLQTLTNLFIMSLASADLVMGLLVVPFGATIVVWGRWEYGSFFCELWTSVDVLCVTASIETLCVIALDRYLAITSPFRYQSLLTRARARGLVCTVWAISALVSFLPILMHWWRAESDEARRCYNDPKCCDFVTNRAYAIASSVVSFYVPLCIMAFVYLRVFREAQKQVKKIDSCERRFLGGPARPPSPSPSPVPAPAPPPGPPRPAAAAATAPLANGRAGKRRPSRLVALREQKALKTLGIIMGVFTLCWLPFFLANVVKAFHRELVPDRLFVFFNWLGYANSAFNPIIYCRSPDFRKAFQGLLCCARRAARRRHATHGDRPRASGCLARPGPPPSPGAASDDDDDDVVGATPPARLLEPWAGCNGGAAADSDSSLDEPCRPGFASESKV

Broadly, the Ki is a dissociation constant, usually derived from enzyme kinetics or from competition with a known ligand. A higher Ki goes with a looser hold on the target. `CCNCC(O)COc1ccc(C(=O)NCCc2ccc(S(N)(=O)=O)cc2)cc1` (stereo unspecified): the Ki was over 100 µM in experiment [1], over 100 µM in experiment [2] and 0.0221 µM on Carbonic anhydrase 9.
Turning to `CNCC(O)COc1ccc(S(=O)(=O)NCCc2ccccc2)cc1` (stereo unspecified), the inhibition constant (Ki) was 39.8 µM in experiment [1], 26.9 µM in [2] and 0.0592 µM at Carbonic anhydrase 9. In the experiment with Oryctolagus cuniculus [3], the result was Active.
With `CNCC(O)COc1ccc(S(=O)(=O)NCc2ccccc2)cc1` (stereo unspecified), the Ki in [1] is over 100 µM; in experiment [2], 79.4 µM; at Carbonic anhydrase 9 it was 0.0931 µM.
The corresponding values for `CNCC(O)COc1ccc(S(=O)(=O)N2CCN(C)CC2)cc1` (stereo unspecified) are over 100 µM, over 100 µM and 0.127 µM.
For `NS(=O)(=O)c1ccc(CCNC(=O)c2ccc(OCC(O)CNCCO)cc2)cc1` (stereo unspecified) the same measures were over 100 µM, over 100 µM and 0.0058 µM.
Consider `CNCC(O)COc1ccc(S(=O)(=O)NC(C)C)cc1.Cl` (stereo unspecified), for which, in the experiment on Oryctolagus cuniculus [4], the Activity is recorded as 3.25 - 3.67 mmHg. In addition, the results for the Ki (in experiment [1]; in experiment [2]; at Carbonic anhydrase 9) were 31.6 µM, 10.5 µM and 0.0476 µM, respectively. In the experiment on Oryctolagus cuniculus [3], the result was Active.
For `Cl.NS(=O)(=O)c1ccc(CCNC(=O)c2ccc(OCC(O)CN3CCOCC3)cc2)cc1` (stereo unspecified) the same measures were 3.25 - 3.67 mmHg, over 100 µM, over 100 µM, 0.007 µM and “Active”.
Turning to `CC(C)(C)NCC(O)COc1ccc(C(=O)NCCc2ccc(S(N)(=O)=O)cc2)cc1` (stereo unspecified), the inhibition constant Ki in experiment [1] was over 100 µM; in experiment [2], over 100 µM; at Carbonic anhydrase 9 it was 0.0831 µM.
Turning to `CC(C)(C)NC[C@H](O)COc1nsnc1N1CCOCC1` [TIMOLOL], the result with Oryctolagus cuniculus [5] and in the experiment with Oryctolagus cuniculus [6] was inactive. The Activity in the experiment on Oryctolagus cuniculus [7] is 3.54 mmHg; in the experiment with Oryctolagus cuniculus [8], 5 mmHg; with Oryctolagus cuniculus [9], 5.73 mmHg.
As for `CC(C)N(CC(O)COc1ccc(C(=O)NCCc2ccc(S(N)(=O)=O)cc2)cc1)C(C)C` (stereo unspecified), the Ki was over 100 µM in experiment [1], over 100 µM in experiment [2] and 0.006 µM on Carbonic anhydrase 9.
As to `CNCC(O)COc1ccc(S(=O)(=O)NCCOc2ccccc2)cc1` (stereo unspecified), the Ki in experiment [1] is 28.2 µM; in [2] it was 6.61 µM; on Carbonic anhydrase 9, 0.0846 µM.
The corresponding values for `CNCC(O)COc1ccc(S(N)(=O)=O)cc1` (stereo unspecified) are over 100 µM, over 100 µM and 0.0234 µM.
The corresponding values for `NS(=O)(=O)c1ccc(CCNC(=O)c2ccc(OCC(O)CNCc3ccccc3)cc2)cc1` (stereo unspecified) are over 100 µM, over 100 µM and 0.0747 µM.
The corresponding values for `CNCC(O)COc1ccc(S(=O)(=O)NC(C)C(C)C)cc1` (stereo unspecified) are 30.2 µM, 15.5 µM and 0.108 µM.
For the compound `CNCC(O)COc1ccc(S(=O)(=O)NC(C)(C)C)cc1.Cl` (stereo unspecified), the Activity with Oryctolagus cuniculus [4] is listed as 3.25 - 3.67 mmHg. Besides, the Ki in experiment [1] is 5.01 µM; in experiment [2] it was 13.5 µM; on Carbonic anhydrase 9, 0.0954 µM. Also, the result in the experiment with Oryctolagus cuniculus [3] was Active.
Consider `CCC(C)NCC(O)COc1ccc(C(=O)NCCc2ccc(S(N)(=O)=O)cc2)cc1` (stereo unspecified), for which the inhibitory constant (Ki) in experiment [1] is over 100 µM; in [2], over 100 µM; at Carbonic anhydrase 9, 0.0536 µM.
Turning to `CCCNCC(O)COc1ccc(C(=O)NCCc2ccc(S(N)(=O)=O)cc2)cc1` (stereo unspecified), the inhibition constant (Ki) was over 100 µM in [1], over 100 µM in experiment [2] and 0.0074 µM at Carbonic anhydrase 9.
In the case of `CC(C)NCC(O)COc1ccc(C(=O)NCCc2ccc(S(N)(=O)=O)cc2)cc1` (stereo unspecified), the Ki is over 100 µM in experiment [1], over 100 µM in experiment [2] and 0.0618 µM at Carbonic anhydrase 9.
In the case of `CNCC(O)COc1ccc(C(=O)NCCc2ccc(S(N)(=O)=O)cc2)cc1` (stereo unspecified), the values for the inhibition constant Ki (in experiment [1]; in experiment [2]; at Carbonic anhydrase 9) were over 100 µM, over 100 µM and 0.0017 µM, respectively.
